Measured values from ChEMBL document CHEMBL3425398, “(Dis)similar Analogues of Riboswitch Metabolites as Antibacterial Lead Compounds” (J Med Chem, 2015).
In brackets after ≈: the same amount, converted by molar mass.

Assays:
[1] = Binding affinity to lysC riboswitch in Bacillus subtilis
[2] = Binding affinity to guanine riboswitch in Bacillus subtilis
[3] = Binding affinity to TPP riboswitch in Escherichia coli
Bacillus subtilis = test: Antibacterial activity against Bacillus subtilis in chemical defined medium; format: functional
[4] = Activation of glmS riboswitch in Staphylococcus aureus
[5] = Activation of glmS riboswitch in Bacillus subtilis
[6] = Binding affinity to TPP riboswitch in Bacillus subtilis
[7] = Binding affinity to thiM riboswitch in Escherichia coli
[8] = Binding affinity to thiC riboswitch in Escherichia coli
Staphylococcus aureus [9] = test: Antibacterial activity against Staphylococcus aureus in rich cation-adjusted Muller-Hinton broth; format: functional
Staphylococcus aureus [10] = test: Antibacterial activity against Staphylococcus aureus in rich cation-adjusted Muller-Hinton broth in presence of 1.5 mM DTT; format: functional

N=C(N)NCCCC[C@H](N)C(=O)O
Kd [1]: 7 µM

NCCCC[C@H](N)C(=O)O [LYSINE]
Kd [1]: 0.36 µM

CC(=O)Nc1nc(=O)c2[nH]cnc2[nH]1
Kd [2]: 0.0005 µM

Nc1nc2[nH]cnc2c(=O)[nH]1 [GUANINE]
Kd [2]: 0.005 µM

NC/C=C/CC(N)C(=O)O (racemic)
Kd [1]: 0.97 µM

Cc1ncc(Cn2cc(CCOP(=O)(O)OP(=O)(O)O)nn2)c(N)n1
Kd [3]: 0.37 µM

NCCOC[C@H](N)C(=O)O
Kd [1]: 13 µM
MIC (Bacillus subtilis): 26 µM (≈ 3.85 µg/mL)

Nc1nc2[nH]cnc2/c(=N\O)[nH]1
Kd [2]: 0.02 µM

NCCSC[C@H](N)C(=O)O
Kd [1]: 30 µM
MIC (Bacillus subtilis): 26 µM (≈ 4.27 µg/mL)

N[C@@H]1[C@@H](O)[C@H](O)[C@@H](COP(=O)(O)O)C[C@@H]1O
EC50 [4]: 6.2 µM

N[C@H]1C(O)O[C@H](COP(=O)(O)O)[C@@H](O)[C@@H]1O (stereo partly specified)
EC50 [5]: 200 µM

Cc1ncc(C[n+]2cccc(CCOP(=O)([O-])OP(=O)(O)O)c2C)c(N)n1
Kd [6]: 0.16 µM

Cc1ncc(C[n+]2csc(CCOP(=O)([O-])OP(=O)(O)O)c2C)c(N)n1 [THIAMIN DIPHOSPHATE]
Kd [6]: 0.05 µM
Kd [7]: 0.6 µM
Kd [8]: 0.1 µM

Cc1ncc(Cn2nnc(CCOP(=O)(O)CP(=O)(O)O)c2C)c(N)n1
Kd [3]: 0.009 µM

Nc1nc(N)c(N)c(=O)[nH]1
Kd [2]: 0.1 µM
MIC (Staphylococcus aureus [9]): 4000 µM (≈ 565 µg/mL)
MIC (Staphylococcus aureus [10]): 14 µM
